According to US20220401439A1, “INTRANASAL PHARMACEUTICAL COMPOSITIONS OF CGRP INHIBITORS” (Biohaven Pharmaceutical Holding Company Ltd., priority 2019, published 2022):
Marks after values point to notes of the source that are not given here.

Tests used:
logD of drug substance = assay type: physicochemical; conditions: mono-hydrochloride salt form
[1] = test system: patients receiving acute treatment of migraine; assay: Phase 2/3 trial BHV3500-201 (Study 201), efficacy in acute treatment of migraine; assay type: in vivo, human
[2] = 5 mg single dose, mITT subjects, Overall
[3] = 5 mg single dose, mITT, Prophylactic migraine medication use: No
[4] = 5 mg single dose, mITT, Prophylactic migraine medication use: Yes
[5] = 10 mg single dose, mITT subjects, Overall
[6] = 10 mg single dose, mITT, Prophylactic migraine medication use: No
[7] = 10 mg single dose, mITT, Prophylactic migraine medication use: Yes
[8] = 10 mg single intranasal dose, p < 0.05
[9] = 20 mg single dose, mITT subjects, Overall
[10] = 20 mg single dose, mITT, Prophylactic migraine medication use: No
[11] = 20 mg single dose, mITT, Prophylactic migraine medication use: Yes
[12] = 20 mg single intranasal dose, p < 0.05
[13] = zavegepant 5 mg vs placebo, mITT, CMH weighting
[14] = zavegepant 5 mg vs placebo, subjects with functional disability at onset, CMH weighting
[15] = zavegepant 5 mg vs placebo, subjects with symptom present at onset, CMH weighting
[16] = zavegepant 5 mg, mITT subjects with functional disability at on-study migraine attack onset

Cc1cc(C[C@@H](NC(=O)N2CCC(c3cc4ccccc4[nH]c3=O)CC2)C(=O)N2CCN(C3CCN(C)CC3)CC2)cc2cn[nH]c12 [Zavegepant, (R)—N-(3-(7-methyl-1H-indazol-5-yl)-1-(4-(1-methylpiperidin-4-yl)piperazin-1-yl)-1-oxopropan-2-yl)-4-(2-oxo-1,2-dihydroquinolin-3-yl)piperidine-1-carboxamide]
logD (logD of drug substance): 1.21 | Pain Relief at 15 Minutes Post-Dose, (%) of subjects [1, 2]: (14.2) % | Pain Relief at 15 Minutes Post-Dose, n/N [1, 2]: 55/387 | Pain Relief at 15 Minutes Post-Dose, Stratified percentage difference (BHV-3500-Placebo) ([1]; 5 mg single dose, mITT subjects, Overall, CMH weighting): 4.2% | Pain Relief at 15 Minutes Post-Dose, (%) of subjects [1, 3]: (14.7) % | Pain Relief at 15 Minutes Post-Dose, Percentage difference (BHV-3500-Placebo) [1, 3]: 4.6% | Pain Relief at 15 Minutes Post-Dose, n/N [1, 3]: 49/333 | Pain Relief at 15 Minutes Post-Dose, (%) of subjects [1, 4]: (11.1) % | Pain Relief at 15 Minutes Post-Dose, Percentage difference (BHV-3500-Placebo) [1, 4]: 1.9% | Pain Relief at 15 Minutes Post-Dose, n/N [1, 4]: 8/54 | 2 Hour Endpoint Freedom from MBS (Most Bothersome Symptom) ([1]; 5 mg single intranasal dose): 39.0% | 2 Hour Endpoint Pain Freedom ([1]; 5 mg single intranasal dose): 19.6% | Pain Relief at 15 Minutes Post-Dose, (%) of subjects [1, 5]: (18.2) % | Pain Relief at 15 Minutes Post-Dose, n/N [1, 5]: 71/331 | Pain Relief at 15 Minutes Post-Dose, Stratified percentage difference (BHV-3500-Placebo) ([1]; 10 mg single dose, mITT subjects, Overall, CMH weighting): 8.2% | Pain Relief at 15 Minutes Post-Dose, (%) of subjects [1, 6]: (17.3) % | Pain Relief at 15 Minutes Post-Dose, Percentage difference (BHV-3500-Placebo) [1, 6]: 7.2% | Pain Relief at 15 Minutes Post-Dose, n/N [1, 6]: 59/341 | Pain Relief at 15 Minutes Post-Dose, (%) of subjects [1, 7]: (24.0) % | Pain Relief at 15 Minutes Post-Dose, Percentage difference (BHV-3500-Placebo) [1, 7]: 14.7% | Pain Relief at 15 Minutes Post-Dose, n/N [1, 7]: 12/50 | 2 Hour Endpoint Freedom from MBS (Most Bothersome Symptom) [1, 8]: 41.9%* | 2 Hour Endpoint Pain Freedom [1, 8]: 22.5%* | return to normal function ([1]; 20 mg): as early as 30 minutes | Pain Relief at 15 Minutes Post-Dose, (%) of subjects [1, 9]: (14.7) % | Pain Relief at 15 Minutes Post-Dose, n/N [1, 9]: 59/402 | Pain Relief at 15 Minutes Post-Dose, Stratified percentage difference (BHV-3500-Placebo) ([1]; 20 mg single dose, mITT subjects, Overall, CMH weighting): 4.7% | Pain Relief at 15 Minutes Post-Dose, (%) of subjects [1, 10]: (13.3) % | Pain Relief at 15 Minutes Post-Dose, Percentage difference (BHV-3500-Placebo) [1, 10]: 3.2% | Pain Relief at 15 Minutes Post-Dose, n/N [1, 10]: 46/345 | Pain Relief at 15 Minutes Post-Dose, (%) of subjects [1, 11]: (22.3) % | Pain Relief at 15 Minutes Post-Dose, Percentage difference (BHV-3500-Placebo) [1, 11]: 13.5% | Pain Relief at 15 Minutes Post-Dose, n/N [1, 11]: 13/57 | 2 Hour Endpoint Freedom from MBS (Most Bothersome Symptom) [1, 12]: 42.5%* | 2 Hour Endpoint Pain Freedom [1, 12]: 23.1%* | onset of pain relief ([1]; 5, 10, and 20 mg single dose, stratified CMH tests, mITT subjects): pain relief as early as 15 minutes post-dose | durability of benefits (sustained pain freedom and pain relief 2 to 24 and 2 to 48 hours) ([1]; 5, 10 and 20 mg (pain relief 2 to 48: 5 and 10 mg), nominal p<0.05): durable and sustained without rescue medication out to 48 hours | pain relief and return to normal function at 2 hours ([1]; 10 and 20 mg doses): therapeutic benefits | comparison to placebo on co-primary endpoints of pain freedom and freedom from MBS at 2 hours ([1]; 10 and 20 mg, single dose, p<0.05): statistically superior | comparison to placebo on multiple secondary endpoints demonstrating early activity ([1]; nominal p<0.05): superior to placebo | Pain relief at 2 hours postdose, n/N (%) ([1]; zavegepant 5 mg intranasal single dose, mITT subjects): (57.9) % | Pain relief at 30 minutes postdose, Stratified Percentage Difference (Zavegepant-Placebo) [1, 13]: 1.9% | Pain relief at 60 minutes postdose, Stratified Percentage Difference (Zavegepant-Placebo) [1, 13]: 5.1% | Rescue medication use within 24 hours postdose, Stratified Percentage Difference (Zavegepant-Placebo) [1, 13]: −2.4% | Sustained pain freedom from 2 to 24 hours postdose, Stratified Percentage Difference (Zavegepant-Placebo) [1, 13]: 5.3% | Sustained pain freedom from 2 to 48 hours postdose, Stratified Percentage Difference (Zavegepant-Placebo) [1, 13]: 5.5% | Sustained pain relief from 2 to 24 hours postdose, Stratified Percentage Difference (Zavegepant-Placebo) [1, 13]: 8.0% | Sustained pain relief from 2 to 48 hours postdose, Stratified Percentage Difference (Zavegepant-Placebo) [1, 13]: 7.4% | Pain relief at 2 hours postdose, Stratified Percentage Difference (Zavegepant-Placebo) ([1]; zavegepant 5 mg vs placebo, mITT, stratified by prophylactic migraine medication use, CMH weighting): 4.2% | Return to normal function at 30 minutes postdose, Stratified Percentage Difference (Zavegepant-Placebo) [1, 14]: 3.4% | Return to normal function at 60 minutes postdose, Stratified Percentage Difference (Zavegepant-Placebo) [1, 14]: 5.5% | Return to normal function at 2 hours postdose, Stratified Percentage Difference (Zavegepant-Placebo) [1, 14]: 4.3% | Pain relapse from 2 to 48 hours postdose, Stratified Percentage Difference (Zavegepant-Placebo) ([1]; zavegepant 5 mg vs placebo, subjects with pain freedom at 2 hours postdose, CMH weighting): −18.9% | Nausea freedom at 2 hours postdose, Stratified Percentage Difference (Zavegepant-Placebo) [1, 15]: 1.8% | Phonophobia freedom at 2 hours postdose, Stratified Percentage Difference (Zavegepant-Placebo) [1, 15]: 10.1% | Photophobia freedom at 2 hours postdose, Stratified Percentage Difference (Zavegepant-Placebo) [1, 15]: 4.6% | Pain relief at 30 minutes postdose, n/N (%) ([1]; zavegepant 5 mg, mITT subjects): (26.6) % | Pain relief at 60 minutes postdose, n/N (%) ([1]; zavegepant 5 mg, mITT subjects): (47.0) % | Rescue medication use within 24 hours postdose, n/N (%) ([1]; zavegepant 5 mg, mITT subjects): (24.9) % | Sustained pain freedom from 2 to 24 hours postdose, n/N (%) ([1]; zavegepant 5 mg, mITT subjects): (14.2) % | Sustained pain freedom from 2 to 48 hours postdose, n/N (%) ([1]; zavegepant 5 mg, mITT subjects): (12.9) % | Sustained pain relief from 2 to 24 hours postdose, n/N (%) ([1]; zavegepant 5 mg, mITT subjects): (43.7) % | Sustained pain relief from 2 to 48 hours postdose, n/N (%) ([1]; zavegepant 5 mg, mITT subjects): (40.1) % | Return to normal function at 30 minutes postdose, n/N (%) [1, 16]: (8.8) % | Return to normal function at 60 minutes postdose, n/N (%) [1, 16]: (22.6) %
